Measurements from paper PMC5636120, “Biochemical characterization of recombinant influenza A polymerase heterotrimer complex: Polymerase activity and mechanisms of action of nucleotide analogs” (PLoS ONE, 2017).
Where “and” joins values, the source holds several entries; their conditions need not be identical. Identical values can stand only once. Like-named read-outs stand apart in the source and are kept apart here.

Columns and labels:
[1] = molecular target: recombinant influenza polymerase trimer (RdRp) (Influenza A virus, UniProt P03431); experiment: Mechanism of action, gel-based incorporation assay with miniHA template and capped 33P-m7G167 primer; type: biochemical, Influenza A virus H1N1 strain A/PR/8; conditions: 500 μM analog in place of GTP, 500 μM each CTP, UTP, ATP, miniHA template
recombinant influenza polymerase trimer (RdRp), sequence (P03431 whole entry, looked up): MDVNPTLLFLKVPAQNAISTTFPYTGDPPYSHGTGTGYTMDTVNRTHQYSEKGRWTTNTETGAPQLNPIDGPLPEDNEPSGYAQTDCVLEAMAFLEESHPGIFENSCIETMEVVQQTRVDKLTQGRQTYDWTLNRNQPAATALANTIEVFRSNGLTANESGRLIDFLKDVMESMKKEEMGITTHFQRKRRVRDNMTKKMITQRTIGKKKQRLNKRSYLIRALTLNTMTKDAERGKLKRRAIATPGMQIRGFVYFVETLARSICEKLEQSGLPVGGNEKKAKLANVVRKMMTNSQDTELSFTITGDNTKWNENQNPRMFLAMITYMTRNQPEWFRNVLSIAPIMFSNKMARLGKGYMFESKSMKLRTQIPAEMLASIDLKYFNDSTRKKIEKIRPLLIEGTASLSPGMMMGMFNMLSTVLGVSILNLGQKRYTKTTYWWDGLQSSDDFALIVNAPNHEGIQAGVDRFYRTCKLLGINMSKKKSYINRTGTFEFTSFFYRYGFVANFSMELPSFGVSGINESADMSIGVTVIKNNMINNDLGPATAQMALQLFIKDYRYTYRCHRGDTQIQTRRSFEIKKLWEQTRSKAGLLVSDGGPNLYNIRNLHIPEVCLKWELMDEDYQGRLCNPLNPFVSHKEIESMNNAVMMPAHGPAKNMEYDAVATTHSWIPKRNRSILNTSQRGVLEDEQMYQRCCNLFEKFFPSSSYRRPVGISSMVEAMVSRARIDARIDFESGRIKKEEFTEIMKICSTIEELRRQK
Protocol: (§1) The PA, PB1 and PB2 genes of Influenza A virus RNA polymerase were amplified by reverse-transcription and PCR from H1N1 strain A/PR/8. The 3x FLAG tag was added to the N-terminal full-length PA and cloned into pFastBac1 vector (Life Technologies, Carlsbad, CA). Full-length PB1 and PB2 genes were cloned into pFastBac Dual vector (Life Technologies) as described previously. Recombinant baculovirus was generated for PA and PB1/PB2 using Sf9 cells and was used to co-infect Trichopulsia ni cells (Hi5) at 1.5 x 10^6 cells/ml in ESF-921 medium (Expression Systems, David, CA). Purification and biochemical characterization of the polymerase heterotrimer was described previously. The purified polymerase complex was stored at -80°C prior use.
Recombinant influenza polymerase trimer (80 ng/μL) was incubated with 595 nM ^33P-m^7G^167 and 1.6 μM miniHA template in buffer containing 50 mM HEPES (pH 7.8), 2 mM DTT, 5 mM magnesium acetate, 0.2 U/mL RNasin for 60 minutes at 37°C. After the endonuclease cleavage of ^33P-m^7G^167 was completed, 20 μM of endonuclease inhibitor 4-(1,4-bis(4-chlorobenzyl)piperidin-4-yl)-2,4-dioxobutanoic acid was added to the reaction mixture. The polymerase reactions were initiated by adding nucleotide analogs and three other natural NTPs (all at final concentrations of 500 μM) and 10 μCi α-^33P-ATP. Reactions were incubated at 37°C for 30 minutes and quenched with equal volumes of gel loading dye containing 90% formamide, 100 mM EDTA, 0.1% (w/v) bromphenol blue and xylene cyanol. Reactions were analyzed by electrophoresis (25% polyacrylamide, 8 M urea). The dried gels were exposed to phosphorimager screen and visualized using the Typhoon Trio and ImageQuant Software (GE, Piscataway, NJ.)

[2] = molecular target: concentrated cRNP with endogenous viral template (Influenza A virus, UniProt P03431); conditions: 500 μM natural NTPs and/or analogs, 60 minutes
concentrated cRNP with endogenous viral template, sequence (P03431 whole entry, looked up): as above

[3] = molecular target: T1, recombinant influenza RdRp (PA/PB1/PB2 heterotrimer) (Influenza A virus, UniProt P03431); experiment: Apparent binding affinity (Kapp), single nucleotide incorporation; type: biochemical, Influenza A virus H1N1 strain A/PR/8; conditions: for Selectivity factor, Kapp(analog):Kapp(GTP): natural GTP over analog; for Kapp: SNI-G template, ApG primer, 37°C, 35 minutes, concentration converting half of 9-mer to 10-14-mer
T1 sequence (P03431 whole entry, looked up, one chain of several): as the sequence (P03431 whole entry, looked up) above
Protocol: as §1
The apparent binding affinity Kapp was determined for GTP and T-1106-TP as described by Jin et al. 250 nM recombinant polymerase trimer was pre-incubated with 2.5 μM SNI-G template, 1 μM SNI-Pro promoter, and 400 μM ApG primer in a buffer containing 40 mM Tris-HCl (pH 7.0), 20 mM NaCl, 5 mM MgCl2, 2 mM DTT, and 0.2 U/μL RNasin at 37°C. The reaction was initiated by adding a mixture of 25 μM CTP, 25 μM UTP, 25 μCi of α-^33P-UTP, and various concentrations of GTP or analogs. Reactions proceeded for 35 minutes and were quenched with equal volumes of loading dye containing 90% formamide, 100 mM EDTA, 0.1% (w/v) amount of bromphenol blue and xylene cyanol. The products were separated by 25% PAGE, visualized, and quantified by autoradiography as described above. Data were fit with Eq I, where %Max and %Min are respectively the ratios of (10+11+12+13+14-mer)/ (9+10+11+12+13+14-mer) at the highest nucleotide concentration and the baseline level of mis-incorporation of CTP/UTP in the absence of the correct nucleotide (GTP) encoded by the template sequence, Kapp is the concentration at which half of the reactant (9-mer) is converted to products (10+11+12+13+14-mers), and S is the concentration of nucleotide analog.
Y=(%Max−%Min)⋅S/Kapp+S+%Min (I)

[4] = molecular target: viral ribonucleoprotein complexes from detergent-disrupted Influenza A/PR/8/34 (Influenza A virus, UniProt P03431); experiment: Influenza polymerase inhibition (IC50) filter binding assay, ApG-primed RNA synthesis by cRNP; conditions: vs T-705-RTP
viral ribonucleoprotein complexes from detergent-disrupted Influenza A/PR/8/34, sequence (P03431 whole entry, looked up, one chain of several): as the sequence (P03431 whole entry, looked up) above

[5] = test system: influenza A (A/Hong Kong/8/68); experiment: Antiviral activity (virus-induced cytopathic effect, CellTiterGlo) in infected MDCK cells; type: cell-based, Influenza A virus A/Hong Kong/8/68; conditions: for EC50: MDCK cells infected with Influenza A/HK/68, MOI 0.005, five day incubation, nucleoside form
Protocol: MDCK cells were seeded in 96-well plates at a density of 1 × 10^4 cells per well in 100 μL of MEM medium supplemented with 10% FBS. Medium was removed the next day and the cells were washed twice with 100 μL MEM medium supplemented with 0.125% (w/v) BSA (MEM-BSA). Serially diluted compounds were added to cells in 150 μL MEM-BSA and cells were infected with influenza A (A/Hong Kong/8/68, Advanced Biotechnologies Inc.) at MOI 0.005 in 50 μL of MEM-BSA medium supplemented with 8 μg/mL trypsin (Worthington, Lakewood, NJ). After five day incubation at 37°C, virus-induced cytopathic effect was determined by adding CellTiterGlo viability reagents (Promega, Madison, WI) and the luminescence signal was measured using Perkin Elmer’s Envision MultiLabel plate reader (Santa Clara, CA). The cytotoxicity of compounds in MDCK cells was determined in replicate plates with the same setup as used in the antiviral assay, except no virus was added to the cell culture. EC50 and CC50 values were calculated by non-linear regression analysis using GraphPad Prism (La Jolla, CA) and four parameter logistic sigmoidal dose-response (variable slope) equations.

in vitro = conditions: dog
[6] = molecular target: T1, recombinant influenza RdRp (PA/PB1/PB2 heterotrimer); set-up: method as in PMID 23874596; conditions: cited from earlier work
[7] = Influenza A virus, MDCK, 120 h, read-out: EC50

In the case of `N#CC1(COP(=O)(O)OP(=O)(O)OP(=O)(O)O)OC(n2cnc3c(=O)[nH]c(N)nc32)C(F)C1O` (stereo not drawn) [4’CN-FdGTP], the “Mode of action on RNA synthesis” value [1] is reported as “direct chain-termination”.

With `NC(=O)c1nccn([C@@H]2O[C@H](COP(=O)(O)OP(=O)(O)OP(=O)(O)O)[C@@H](O)[C@H]2O)c1=O` [T-1106-TP] the “Incorporation / mode of action in cRNP reactions” value (shortened to “Incorporation / mode of action”) [2] was “incorporation and chain termination”, the “Times lower selectivity factor than the reported selectivity over T-705-TP” value ([3]; compared with reported selectivity) was 6.3 and the “Selectivity factor, Kapp(analog):Kapp(GTP)” value [3] was 3 and 2.9. For the same compound, the “Fold more potent (lower enzymatic IC50) than T-705-RTP in the biochemical assay” value [4] was 3, the “Mode of action on RNA synthesis” value [1] was “delayed chain termination” and the “Fold less potent than T-705 in the antiviral assays” value ([5]; vs T-705, MDCK cells) was 12.

For `N#C[C@]1(CO)O[C@@H](n2cnc3c(=O)[nH]c(N)nc32)[C@H](F)[C@@H]1O` [4’CN-FdG], the CC50 at 5 day (in vitro) was over 200 µM and the EC50 [5, 7] was over 200 µM.

Work on `Nc1nc2c(ncn2[C@@H]2O[C@H](CO)[C@@H](O)[C@H]2F)c(=O)[nH]1` [2’FdG, 2’-deoxy, 2’F guanosine] yielded a CC50 at 5 day (in vitro) of over 200 µM, an EC50 ([5]; Influenza A virus, MDCK, 120 h) of 18 µM and an EC50 ([5]; read-out: EC50) of 19 ± 5 µM.

For `C=C[C@]1(COP(=O)(O)OP(=O)(O)OP(=O)(O)O)O[C@@H](n2cnc3c(=O)[nH]c(N)nc32)[C@H](F)[C@@H]1O` [4’vinyl-FdGTP], the Kapp [3] was 29 µM, the Kapp ([3]; listed as 4'vinyl-FdGTP) was 29.1 µM and the “Selectivity factor, Kapp(analog):Kapp(GTP)” value [3] was 3096. The “Mode of action on RNA synthesis” value [1] was “direct chain-termination”.

For `Nc1nc2c(ncn2[C@@H]2O[C@H](COP(=O)(O)OP(=O)(O)OP(=O)(O)O)[C@@H](O)[C@H]2O)c(=O)[nH]1` [GTP], the “Selectivity factor, Kapp(analog):Kapp(GTP)” value [3] is given as 1 and the “Kapp, reported value” [6] is given as 8 nM.

`NC(=O)c1nc(F)c[nH]c1=O` [T-705] showed a CC50 (in vitro) of over 100 µM, an EC50 ([5]; Influenza A virus, MDCK, 120 h) of 2.2 µM and an EC50 ([5]; read-out: EC50) of 2.4 ± 1.1 µM.

Compound `NC(=O)c1nccn([C@@H]2O[C@H](CO)[C@@H](O)[C@H]2O)c1=O` [T-1106] has a CC50 at 5 day (in vitro) of over 100 µM and an EC50 [5, 7] of 27 ± 6 µM.

In the case of `Nc1nc2c(ncn2[C@@H]2O[C@H](COP(=O)(O)OP(=O)(O)OP(=O)(O)O)[C@@H](O)[C@H]2F)c(=O)[nH]1` [2’FdGTP], the “Incorporation / mode of action” value [2] is reported as “stable incorporation” and the “Mode of action on RNA synthesis” value [1] is reported as “stably incorporated into RNA”.

In the case of `NC(=O)c1nc(F)cn([C@@H]2O[C@H](COP(=O)(O)OP(=O)(O)OP(=O)(O)O)[C@@H](O)[C@H]2O)c1=O` [T-705-RTP], the “Incorporation / mode of action” value [2] is reported as “neither incorporation” and the “Mode of action on RNA synthesis” value [1] is reported as “delayed chain-termination”.

Work on `C=C[C@]1(CO)O[C@@H](n2cnc3c(=O)[nH]c(N)nc32)[C@H](F)[C@@H]1O` [4’vinyl-FdG] yielded a CC50 at 5 day (in vitro) of over 200 µM, an EC50 ([5]; Influenza A virus, MDCK, 120 h) of 110 µM and an EC50 ([5]; read-out: EC50) of 116 ± 48 µM.
